# Assay results: US5180746A, “Aralkylamine compounds” (priority 1989, dated 1993)
# pIC50: −log10 of the molar value. Where a name gives a salt, the structure may show the parent alone.
# Target: T1, cholinesterase (Rattus norvegicus, UniProt P37136)
# T1 construct: The S1 fraction of a cerebral cortex homogenate from male Wistar rats; from tissue; host or cells: cerebral cortex homogenate (S1 fraction), male Wistar rats
# Assay: anticholinesterase activity using (acetyl-[3H])-acetylcholine, S1 fraction of rat cerebral cortex homogenate
# Type: biochemical, male Wistar rats
# Settings: (acetyl-[3H])-acetylcholine substrate, 30 minutes incubation
# Experimental: The anticholinesterase activity of the compound of the invention was evaluated using (acetyl-[^3 H])-acetylcholine. The S1 fraction of a cerebral cortex homogenate from male Wistar rats was used as the cholinesterase source, (acetyl-[^3 H])-acetylcholine as the substrate and the test compound of the invention as the test substance. The incubation was carried out for 30 minutes and after the reaction was terminated, the system was shaken with a toluene scintillator to thereby transfer [^3 H]-acetic acid into the toluene layer. The radioactivity in the toluene layer was then measured with a liquid scintillation counter to estimate the anticholinesterase activity of the test compound.
# The anticholinesterase activity of the test compound was expressed in 50% inhibitory concentration (IC50).
# T1 sequence (P37136 32-614): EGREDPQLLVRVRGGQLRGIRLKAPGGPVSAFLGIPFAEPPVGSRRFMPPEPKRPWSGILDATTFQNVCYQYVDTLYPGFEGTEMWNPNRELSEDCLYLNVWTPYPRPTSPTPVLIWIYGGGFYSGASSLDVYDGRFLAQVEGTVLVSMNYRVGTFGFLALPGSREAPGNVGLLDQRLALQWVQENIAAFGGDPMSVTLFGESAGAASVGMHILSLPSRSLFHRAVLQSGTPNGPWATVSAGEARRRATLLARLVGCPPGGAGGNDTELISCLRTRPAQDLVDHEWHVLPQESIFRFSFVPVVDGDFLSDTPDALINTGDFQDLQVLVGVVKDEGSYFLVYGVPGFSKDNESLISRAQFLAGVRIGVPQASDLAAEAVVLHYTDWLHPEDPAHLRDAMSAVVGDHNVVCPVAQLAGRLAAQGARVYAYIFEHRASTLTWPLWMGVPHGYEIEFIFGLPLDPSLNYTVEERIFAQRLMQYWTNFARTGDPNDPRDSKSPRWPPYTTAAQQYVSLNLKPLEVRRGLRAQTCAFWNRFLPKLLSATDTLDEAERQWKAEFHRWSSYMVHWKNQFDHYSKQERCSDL
row,Compound,pIC50
1,CCN(CCCCCC1Cc2cc(OC)c(OC)cc2C1=O)Cc1ccccc1 (stereo not shown) [Example 3-1],6.92
2,CCN(CCCCC1Cc2cc(OC)c(OC)cc2C1=O)Cc1ccccc1OC (stereo not shown) [Example 3-2],7.70
3,CCN(CCCCC1Cc2cc(OC)c(OC)cc2C1=O)Cc1ccccc1 (stereo not shown) [Example 3-3],7.12
4,CCN(CCCC1Cc2cc(OC)c(OC)cc2C1=O)Cc1ccccc1OC (stereo not shown) [Example 3-4],7.96
5,CCN(CCC1Cc2cc(OC)c(OC)cc2C1=O)Cc1ccccc1OC (stereo not shown) [Example 3-5],6.17
6,CCN(CCCC1Cc2cc(OC)c(OC)cc2C1=O)Cc1ccccc1OC (stereo not shown) [Example 3-6],7.85
7,CCN(CCCCC1Cc2cc(OC)c(OC)cc2C1=O)Cc1ccccc1OC (stereo not shown) [Example 3-7],7.57
8,CCN(CCCCC1Cc2cc(OC)c(OC)cc2C1=O)Cc1cccc(OC)c1 (stereo not shown) [Example 3-8],6.96
9,CCN(CCCCC1Cc2cc(OC)c(OC)c(OC)c2C1=O)Cc1ccccc1OC (stereo not shown) [Example 3-9],7.05
10,CCN(CCCCC1Cc2cc(OC)ccc2C1=O)Cc1ccccc1OC (stereo not shown) [Example 3-10],6.96
11,CCN(CCCCC1Cc2cc3c(cc2C1=O)OCO3)Cc1ccccc1OC (stereo not shown) [Example 3-11],6.77
12,CCN(CCCCCC1CCc2cc(OC)ccc2C1=O)Cc1ccccc1OC (stereo not shown) [Example 3-12],6.89
13,CCN(CCCC1Cc2cc(OC)c(OC)cc2C1=O)Cc1cccc(O)c1 (stereo not shown) [Example 3-13],6.68
14,CCN(CCCCC1Cc2cc(OC)c(OC)cc2C1=O)Cc1cccc(O)c1 (stereo not shown) [Example 3-14],6.20
15,CCN(CCCCCCC1Cc2cc(OC)c(OC)cc2C1=O)Cc1ccccc1OC (stereo not shown) [Example 3-15],7.00
16,"CCN(CCCCCC1Cc2cc(OC)c(OC)cc2C1O)Cc1ccccc1OC (stereo not shown) [Example 4, 1,2-Dihydro-5,6-dimethoxy-2-[5-[N-ethyl-N-[(2-methoxyphenyl)methyl]amino]pentyl]-1-hydroxyindene]",6.80
17,"CCN(CCCCCC1=Cc2cc(OC)c(OC)cc2C1)Cc1ccccc1OC [Example 5, 5,6-Dimethoxy-2-[5-[N-ethyl-N-[(2-methoxyphenyl)methyl]amino]pentyl]indene hydrochloride]",6.22
18,"CCN(CCCCC1Cc2cc(N3CCCC3)ccc2C1=O)Cc1ccccc1 (stereo not shown) [Example 7, 2-[4-[N-Ethyl-N-(phenylmethyl)amino]butyl]-5-pyrrolidino-1-indanone fumarate]",6.84
19,"CCN(CCCCC1Cc2cc(N3CCCC3)ccc2C1=O)Cc1ccccc1OC (stereo not shown) [Example 8, 2-[4-[N-Ethyl-N-[(2-methoxyphenyl)methyl]amino]butyl]-5-pyrrolidino-1-indanone fumarate]",7.09
